These results are taken from ChEMBL document CHEMBL4765292, “Flexible diaminodihydrotriazine inhibitors of Plasmodium falciparum dihydrofolate reductase: Binding strengths, modes of binding and their antimalarial activities” (Eur J Med Chem, 2020).

Some results are limits rather than exact numbers.

Assay [1] can be described thus: Inhibition of Plasmodium falciparum DHFR expressed in Escherichia coli BL21 using DHF as substrate by spectrophotometric analysis.
A short description of assay [2]: Inhibition of Plasmodium falciparum DHFR A16V/S108T mutant expressed in Escherichia coli BL21 using DHF as substrate by spectrophotometric analysis.
A short description of assay [3]: Inhibition of Plasmodium falciparum DHFR […] mutant expressed in Escherichia coli BL21 using DHF as substrate by spectrophotometric analysis.
Assay [4] is described as follows: Inhibition of Plasmodium falciparum DHFR N51I/C59R/S108N mutant expressed in Escherichia coli BL21 using DHF as substrate by spectrophotometric analysis.
Assay [5] in a line: Inhibition of Plasmodium falciparum DHFR C59R/S108N/I164L mutant expressed in Escherichia coli BL21 using DHF as substrate by spectrophotometric analysis.
Assay [6] in a line: Inhibition of Plasmodium falciparum DHFR N51I/C59R/S108N/I164L mutant expressed in Escherichia coli BL21 using DHF as substrate by spectrophotometric analysis.
For assay [7], the system named is Plasmodium falciparum. The assay can be described thus: Antimalarial activity against Plasmodium falciparum TM4/8.2 infected in human erythrocytes assessed as reduction in [3H]-hypoxanthine incorporation pretreated for 20 hrs followed by [3H]-hypoxanthine addition measured after 20 hrs by radioactivity method. The class given is functional, organism-based.
The test system of assay [8] is Plasmodium falciparum. Kind of assay: Antimalarial activity against Plasmodium falciparum K1CB1 harboring DHFR […] mutant infected in human erythrocytes assessed as reduction in [3H]-hypoxanthine incorporation pretreated for 20 hrs followed by [3H]-hypoxanthine addition measured after 20 hrs by radioactivity method. The conditions noted are these: K1CB1, Erythrocyte. The class given is functional, organism-based.

The test system of assay [9] is Plasmodium falciparum. Kind of assay: Antimalarial activity against Plasmodium falciparum W2 harboring DHFR N51I/C59R/S108N mutant infected in human erythrocytes assessed as reduction in [3H]-hypoxanthine incorporation pretreated for 20 hrs followed by [3H]-hypoxanthine addition measured after 20 hrs by radioactivity method. It is filed as functional, organism-based. The conditions noted are these: W2, Erythrocyte.

Assay [10] deals with Plasmodium falciparum. The assay can be described thus: Antimalarial activity against Plasmodium falciparum CsI-2 harboring DHFR C59R/S108N/I164L mutant infected in human erythrocytes assessed as reduction in [3H]-hypoxanthine incorporation pretreated for 20 hrs followed by [3H]-hypoxanthine addition measured after 20 hrs by radioactivity method. The class given is functional, organism-based. Particulars: CsI-2, Erythrocyte.

In assay [11] the test system is Plasmodium falciparum. The assay can be described thus: Antimalarial activity against Plasmodium falciparum V1/S harboring DHFR N51I/C59R/S108N/I164L mutant infected in human erythrocytes assessed as reduction in [3H]-hypoxanthine incorporation pretreated for 20 hrs followed by [3H]-hypoxanthine addition measured after 20 hrs by radioactivity method. It is filed as functional, organism-based. The conditions noted are these: Erythrocyte.

Assay [12] relates to Plasmodium falciparum. Kind of assay: Antimalarial activity against Plasmodium falciparum T9/94 RC17 harboring DHFR A16V/S108T mutant infected in human erythrocytes assessed as reduction in [3H]-hypoxanthine incorporation pretreated for 20 hrs followed by [3H]-hypoxanthine addition measured after 20 hrs by radioactivity method. The conditions noted are these: T9/94 RC17, Erythrocyte. The class given is functional, organism-based.

Regarding `CC1(C)N=C(N)N=C(N)N1OCCCCOCc1ccccc1`, the Ki is 1 nM in assay [1]; 10.5 nM in assay [2]; 2.5 nM in assay [3]; 2.9 nM in assay [4]; 12.2 nM in [5]; 18.2 nM in assay [6]. The IC50 in the assay on Plasmodium falciparum [7] stood at 400 nM; with Plasmodium falciparum [8], 2400 nM; in the assay on Plasmodium falciparum [9], 3200 nM; in the assay with Plasmodium falciparum [10], 4800 nM; in the assay with Plasmodium falciparum [11], 20800 nM.
On to `CC1(C)N=C(N)N=C(N)N1OCCCSC1CCCCC1`, for which the Ki was determined as 0.6 nM in assay [1]; 3 nM in assay [2]; 1.1 nM in [3]; 0.8 nM in assay [4]; 1.5 nM in assay [5]; 1.4 nM in assay [6]. The IC50 with Plasmodium falciparum [7] was 3.3 nM; in the assay on Plasmodium falciparum [12], 6.9 nM; with Plasmodium falciparum [8], 260 nM; in the assay on Plasmodium falciparum [9] it was 190 nM; in the assay on Plasmodium falciparum [10], 260 nM; in the assay on Plasmodium falciparum [11], 3500 nM.
In the case of `CC1(C)N=C(N)N=C(N)N1OCCCOCc1ccccc1`, the Ki in assay [1] turned out to be 0.6 nM; in [2] it was 5.3 nM; in [3], 1.3 nM; in [4], 1.2 nM; in assay [5] it was 4.2 nM; in assay [6] it was 4.1 nM. In addition, the IC50 in the assay on Plasmodium falciparum [7] amounted to 14 nM; in the assay with Plasmodium falciparum [8], 48 nM; in the assay on Plasmodium falciparum [9], 51 nM; in the assay on Plasmodium falciparum [10], 400 nM; with Plasmodium falciparum [11], 1210 nM.
In the case of `CC1(C)N=C(N)N=C(N)N1OCCCN(Cc1ccccc1)c1ccc(Cl)cc1`, the Ki in assay [1] is 0.6 nM; in assay [2], 6.1 nM; in [3], 0.8 nM; in [4], 1.1 nM; in assay [5] it was 2.3 nM; in [6], 2 nM. The IC50 in the assay with Plasmodium falciparum [7] amounted to 31 nM; with Plasmodium falciparum [12], 49 nM; in the assay on Plasmodium falciparum [8], 400 nM; in the assay on Plasmodium falciparum [9], 510 nM; in the assay on Plasmodium falciparum [10], 3100 nM; in the assay on Plasmodium falciparum [11], 3600 nM.
As for `CC1(C)N=C(N)N=C(N)N1OCC(=O)NCc1ccc(Cl)cc1`, the inhibition constant Ki in assay [1] turned out to be 1.7 nM; in [2], 72.2 nM; in assay [3], 3.6 nM; in [4], 4.3 nM; in assay [5], 13 nM; in assay [6] it was 16.3 nM. In addition, the concentration for half-maximal inhibition (IC50) worked out at 2400 nM with Plasmodium falciparum [7]; 430 nM with Plasmodium falciparum [12]; 530 nM with Plasmodium falciparum [8]; 2500 nM with Plasmodium falciparum [9]; 3600 nM with Plasmodium falciparum [10]; 11000 nM in the assay on Plasmodium falciparum [11].
On to `NC1=NC(c2ccccc2)N(OCCc2ccccc2)C(N)=N1` (stereo not drawn), for which the Ki in assay [1] came to 1.4 nM; in assay [2], 8.3 nM; in assay [3] it was 3.3 nM; in [4], 4.1 nM; in assay [5] it was 13 nM; in assay [6], 14 nM. In addition, the IC50 amounted to 80 nM with Plasmodium falciparum [7]; 3.1 nM with Plasmodium falciparum [12]; 16200 nM in the assay on Plasmodium falciparum [8]; 16800 nM in the assay with Plasmodium falciparum [9]; 20500 nM with Plasmodium falciparum [10]; 24700 nM in the assay with Plasmodium falciparum [11].
Consider `CC1(C)N=C(N)N=C(N)N1OCC(=O)Nc1ccccc1`, for which the Ki stood at 3.7 nM in assay [1]; 131 nM in assay [2]; 5.2 nM in assay [3]; 6.7 nM in assay [4]; 16.4 nM in assay [5]; 17.8 nM in assay [6]. Besides, the half-inhibitory concentration (IC50) was found to be 1900 nM with Plasmodium falciparum [7]; 5200 nM with Plasmodium falciparum [12]; 7200 nM in the assay on Plasmodium falciparum [8]; 13900 nM in the assay on Plasmodium falciparum [9]; 17100 nM in the assay with Plasmodium falciparum [10]; 18100 nM in the assay on Plasmodium falciparum [11].
For the compound `CC1(C)N=C(N)N=C(N)N1OCCCNc1ccccc1`, the inhibition constant (Ki) in assay [1] came out at 0.6 nM; in [2] it was 5.7 nM; in assay [3], 0.8 nM; in assay [4], 1.1 nM; in assay [5], 1.8 nM; in [6] it was 4.8 nM. For the same compound, the IC50 came to 1850 nM in the assay with Plasmodium falciparum [7]; 240 nM with Plasmodium falciparum [8]; 300 nM with Plasmodium falciparum [9]; 3200 nM in the assay on Plasmodium falciparum [10]; 2300 nM with Plasmodium falciparum [11].
As to `CC1(C)N=C(N)N=C(N)N1OCCCN(Cc1ccccc1)c1ccc(Cl)c(Cl)c1`, the Ki was 1 nM in [1]; 5.3 nM in [2]; 1.6 nM in [3]; 1.2 nM in [4]; 2.7 nM in [5]; 1.7 nM in [6]. The IC50 was determined as 150 nM with Plasmodium falciparum [7]; 290 nM in the assay on Plasmodium falciparum [12]; 2300 nM in the assay on Plasmodium falciparum [8]; 2100 nM with Plasmodium falciparum [9]; 5000 nM with Plasmodium falciparum [10]; 5300 nM with Plasmodium falciparum [11].
As for `CC1(C)N=C(N)N=C(N)N1OCCOc1cc(Cl)c(Cl)cc1Cl`, the inhibition constant Ki in assay [1] amounted to 1 nM; in assay [2] it was 6.1 nM; in assay [3], 1.2 nM; in [4], 2.2 nM; in [5] it was 11 nM; in [6] it was 16 nM. Also, the IC50 in the assay with Plasmodium falciparum [7] amounted to 750 nM; in the assay with Plasmodium falciparum [8], 490 nM; with Plasmodium falciparum [9] it was 3010 nM; in the assay on Plasmodium falciparum [10] it was 3300 nM; with Plasmodium falciparum [11], 11500 nM.
Consider `CC1(C)N=C(N)N=C(N)N1OCc1ccccc1`, for which the Ki was 0.4 nM in assay [1]; 46 nM in assay [2]; 2.8 nM in [3]; 5.9 nM in [4]; 30 nM in [5]; 45 nM in assay [6]. In addition, the IC50 with Plasmodium falciparum [7] was 2670 nM; with Plasmodium falciparum [8], 1800 nM; with Plasmodium falciparum [9], 4500 nM; with Plasmodium falciparum [10] it was 47600 nM; in the assay with Plasmodium falciparum [11], above 100000 nM.
For the compound `NC1=NC(c2ccccc2)N(CCCOc2cc(Cl)c(Cl)cc2Cl)C(N)=N1` (stereo not drawn), the Ki in [1] was 1.2 nM; in assay [2], 7.3 nM; in [3], 2.1 nM; in assay [4] it was 2.6 nM; in assay [5], 5.6 nM; in assay [6] it was 5.7 nM. Also, the IC50 turned out to be 750 nM in the assay with Plasmodium falciparum [7]; 18 nM in the assay with Plasmodium falciparum [12]; 2900 nM in the assay on Plasmodium falciparum [8]; 2300 nM with Plasmodium falciparum [9]; 3100 nM with Plasmodium falciparum [10]; 2600 nM in the assay on Plasmodium falciparum [11].
With `NC1=NC(c2ccccc2)N(OCCCc2ccccc2)C(N)=N1` (stereo not drawn), the inhibition constant Ki in [1] amounted to 2.2 nM; in assay [2] it was 7 nM; in assay [3], 0.9 nM; in assay [4], 0.6 nM; in [5], 3.2 nM; in assay [6] it was 3.6 nM. Besides, the 50% inhibitory concentration (IC50) in the assay on Plasmodium falciparum [7] turned out to be 20 nM; with Plasmodium falciparum [12], 0.52 nM; in the assay with Plasmodium falciparum [8], 190 nM; in the assay with Plasmodium falciparum [9], 130 nM; in the assay on Plasmodium falciparum [10], 4500 nM; in the assay on Plasmodium falciparum [11], 4800 nM.
On to `CC1(C)N=C(N)N=C(N)N1OCC(=O)Nc1ccc(Cl)cc1`, for which the Ki in assay [1] was found to be 2.3 nM; in [2], 56.8 nM; in [3] it was 3.8 nM; in [4], 4 nM; in [5], 8.8 nM; in [6], 9.7 nM. Besides, the IC50 came out at 3000 nM in the assay on Plasmodium falciparum [7]; 5000 nM in the assay on Plasmodium falciparum [12]; 4000 nM with Plasmodium falciparum [8]; 3700 nM in the assay with Plasmodium falciparum [9]; 7900 nM in the assay on Plasmodium falciparum [10]; 16700 nM with Plasmodium falciparum [11].
Consider `CC1(C)N=C(N)N=C(N)N1OCCCN(Cc1ccccc1)Cc1ccccc1`, for which the Ki in [1] was 1.5 nM; in assay [2], 6.3 nM; in [3] it was 2.9 nM; in [4], 3.1 nM; in assay [5], 3.1 nM; in assay [6] it was 5.4 nM. The IC50 stood at 22 nM with Plasmodium falciparum [7]; 25 nM with Plasmodium falciparum [12]; 350 nM with Plasmodium falciparum [8]; 500 nM in the assay on Plasmodium falciparum [9]; 500 nM in the assay with Plasmodium falciparum [10]; 5400 nM with Plasmodium falciparum [11].
Regarding `NC1=NC(c2ccccc2)N(OCCCOc2ccc(Cl)cc2)C(N)=N1` (stereo not drawn), the inhibition constant (Ki) is 0.4 nM in [1]; 1.6 nM in assay [2]; 1.1 nM in assay [3]; 0.8 nM in assay [4]; 0.8 nM in [5]; 0.5 nM in [6]. Also, the IC50 with Plasmodium falciparum [7] is 12 nM; in the assay on Plasmodium falciparum [12] it was 0.58 nM; in the assay on Plasmodium falciparum [8], 85 nM; in the assay on Plasmodium falciparum [9] it was 100 nM; in the assay on Plasmodium falciparum [10], 720 nM; in the assay with Plasmodium falciparum [11], 2300 nM.
As to `CCN(CCCON1C(N)=NC(N)=NC1(C)C)c1ccc(Cl)c(Cl)c1`, the Ki in assay [1] stood at 1.4 nM; in assay [2], 2.8 nM; in [3], 2.1 nM; in [4] it was 2 nM; in assay [5], 2.2 nM; in [6], 3.9 nM. The IC50 with Plasmodium falciparum [7] is 26 nM; in the assay with Plasmodium falciparum [8], 35 nM; in the assay with Plasmodium falciparum [9], 71 nM; in the assay on Plasmodium falciparum [10], 46 nM; with Plasmodium falciparum [11] it was 2900 nM.

As a reminder, the Ki is a dissociation constant, usually derived from enzyme kinetics or from competition with a known ligand. As a reminder, the IC50 is the concentration at which inhibition is half-maximal.
